The text below walks through data of US9475789B2, “Use of polyenylpyrrole derivatives for treating inflammation” (WELLHEAD BIOLOGICAL TECHNOLOGY CORP., priority 2014, dated 2016).

Format in all cases: cell-based, murine
Assay [1] has as its system IL-6. Put plainly: IL-6 ELISA, RAW 264.7 macrophages. The following applies: for secretion of IL-6: LPS-activated RAW 264.7, LPS 1 μg/ml 24 h; for background level of IL-6: compound alone, no LPS, data not shown. The procedure: (§1) The effects of tested samples on IL-1β, TNF-α and IL-6 production were measured by ELISA according to the manufacturer's instruction. In brief, 50 μl of biotinylated antibody reagent and 50 μl of supernatant were added to an anti-mouse IL-1β, TNF-α and IL-6 precoated stripwell plate, and incubated at room temperature for 2 h. After washing the plate three times with washing buffer, 100 μl of diluted streptavidin-HRP concentrate was added to each well and incubated at room temperature for 30 min. The washing process was repeated; then 100 μl of a premixed tetramethylbenzidine substrate solution was added to each well and developed at room temperature in the dark for 30 min. Following the addition of 100 μl of stop solution to each well to stop the reaction, the absorbance of the plate was measured by a microplate reader at 450 nm wavelength.
(An ELISA detects its analyte on a solid surface through an enzyme-linked reagent.)

The test system of assay [2] is LPS-induced NO generation in RAW 264.7 macrophages. Put plainly: NO inhibitory assay (Griess reaction) in LPS-activated macrophages. The following applies: for EC50: Mus musculus, RAW264.7, 50% inhibition of the LPS-induced NO generation, RAW 264.7, LPS 1 μg/ml, 24 h, read-out: ED50 (the source's name); for production of NO by LPS-activated cells: RAW 264.7, LPS 1 μg/ml 24 h, Griess reaction; for background level of NO: compound alone, no LPS, RAW 264.7, data not shown. The procedure:
In (A) and (C), cells (5×10^5/ml) were incubated with polyenylpyrrole derivatives or DMSO (vehicle) for 30 min followed by stimulating with LPS (1 μg/ml) for 24 h, then NO (A), IL-6 and TNF-α (C) concentration in culture medium were assayed by Griess reaction and ELISA, respectively. In (B), cells (5×10^5/ml) were pretreated with polyenylpyrrole derivatives or DMSO for 30 min followed by stimulating with LPS (1 μg/ml) for 24 h, then the protein expression of iNOS and COX-2 were assayed by Western blot. […] RAW 264.7 cells were seeded in 24-well plates at a density of 5×10^5 cells/ml, and then incubated with or without LPS (1 μg/ml) in the absence or presence of tested samples for 24 h. The effects of the tested samples on NO production were measured indirectly by analysis of nitrite levels using the Griess reaction.
For orientation: Griess reagent forms a coloured azo dye with nitrite.

In assay [3] the test system is TNF-α. Put plainly: TNF-α ELISA, RAW 264.7 macrophages. The following applies: for TNF-α secretion: LPS-activated RAW 264.7, LPS 1 μg/ml 24 h; for background level of TNF-α: compound alone, no LPS, data not shown. The procedure: (§2) In (A) and (C), cells (5×10^5/ml) were incubated with polyenylpyrrole derivatives or DMSO (vehicle) for 30 min followed by stimulating with LPS (1 μg/ml) for 24 h, then NO (A), IL-6 and TNF-α (C) concentration in culture medium were assayed by Griess reaction and ELISA, respectively. In (B), cells (5×10^5/ml) were pretreated with polyenylpyrrole derivatives or DMSO for 30 min followed by stimulating with LPS (1 μg/ml) for 24 h, then the protein expression of iNOS and COX-2 were assayed by Western blot.
as §1

In assay [4] the test system is iNOS. Put plainly: Western blot of iNOS protein in LPS-activated RAW 264.7 macrophages. The following applies: LPS-activated RAW 264.7, compared with vehicle. On the procedure:
as §2
(§3) Whole cell lysates were separated by SDS-PAGE and electrotransferred to a PVDF membrane. The membranes were incubated in blocking solution—5% nonfat milk in phosphate buffered saline with 0.1% Tween 20—at room temperature for 1 h. Each membrane was incubated with a specific primary antibody at room temperature for 2 h. After washing three times in PBS with 0.1% Tween 20, the membrane was incubated with an HRP-conjugated secondary antibody directed against the primary antibody. The membrane was developed by an enhanced chemiluminescence Western blot detection system.

Assay [5] relates to RAW 264.7 cells. Put plainly: AlamarBlue assay for cell viability. The following applies: Mus musculus, RAW264.7, cytotoxicity against RAW 264.7 cells, 24 h treatment. On the procedure:
RAW 264.7 cells were seeded at a density of 5000 cells in 100 μl RPMI 1640 medium with 10% heat-inactivated FBS per well in 96-well flat-bottom plates and incubated for 24 h at 37° C. in a 5% CO2 incubator. Cells were incubated with tested samples for 24 h and the AlamarBlue® assay was used to determine the cytotoxicity of the test samples. The procedure was conducted following the protocol described in the manufacture's instruction (AbD Serotec Ltd).
The aim of this study is to identify non-toxic polyenylpyrrole derivatives which can be used as anti-inflammatory agents. Compounds 1a-n were evaluated for their cytotoxicities against the murine macrophages cell line RAW 264.7 after 24 h treatment.

The test system of assay [6] is COX-2. Put plainly: Western blot of COX-2 protein in LPS-activated RAW 264.7 macrophages. The procedure:
as §2, §3
A general note: A western blot detects proteins with antibodies after separation by electrophoresis.

The subject of assay [7] is ROS. Put plainly: Intracellular ROS production, LPS-activated RAW 264.7 macrophages. The following applies: compound 1h 20 μM, NAC 10 mM, 30 min before LPS. The procedure: In (A), RAW 264.7 macrophages (5×10^5/ml) were incubated with compound 1h (20 μM), N-acetyl cysteine (NAC; 10 mM) or DMSO (vehicle) for 30 min followed by LPS (1 μg/ml) stimulating for the indicated time, then ROS levels were measured by detection of the fluorescence intensity of the fluorophore carboxyl-DCF and expressed relative to those at time zero. In (B), RAW 264.7 macrophages (5×10^5/ml) were incubated with compound 1h (20 μM) or DMSO for 30 min followed by LPS (1 μg/ml) stimulating for 0-60 min, then the phosphorylation levels of ERK1/2, JNK1/2, p38 were analyzed by Western blot. In (C), J774A.1 macrophages (5×10^5/ml) were incubated with compound 1h or DMSO for 30 min followed by LPS (1 μg/ml) stimulating for 20 min, then the phosphorylation levels of ERK1/2, JNK1/2, p38 were analyzed by Western blot.
Intracellular ROS stimulated by LPS was measured by detecting the fluorescence intensity of the 2′,7′-dichlorofluorescein diacetate (H2DCFDA) oxidized product (DCF) (Molecular Probes, Eugene, Oreg.). […] The relative fluorescence intensity of fluorophore DCF, formed by peroxide oxidation of the non-fluorescent precursor, was detected at an excitation wavelength of 485 nm and an emission wavelength of 530 nm with a microplate absorbance reader (Bio-Rad Laboratories, Inc).

Entries after “also recorded” stand apart in the source; their conditions may differ.

Broadly, the IC50 is the concentration at which inhibition is half-maximal. A lower IC50 goes with greater potency in that assay. In the case of `Cc1c(O)cc(/C=C/C=C/C=C/C=C/c2[nH]ccc2Cl)oc1=O` [Compound 1i], in assay [1], the “secretion of IL-6” value is on record as “decreased production; also recorded: decreased the secretion of IL-6 by LPS-activated RAW 264.7 macrophages in a dose-dependent manner” and the “background level of IL-6” value is recorded as “did not alter”. In addition, in assay [2], the EC50 was found to be 16 ± 2 µM, the “production of NO by LPS-activated cells” value is “decreased production; also recorded: decreased the production of NO by LPS-activated cells in a dose-dependent manner” and the “background level of NO” value is reported as “did not alter”. Also, in assay [3], the TNF-α secretion entry was “slight reduced by compounds 1h, 1i and 1n, but not significantly”; the “background level of TNF-α” value is “did not alter”. Also, the “expression of iNOS protein” value in assay [4] is given as “decreased production; also recorded: reduced the expression of iNOS protein”. This molecule showed an IC50 in assay [5] greater than 100 µM. The COX-2 expression result in assay [6] is recorded as “did not affect”.

As for `COc1cc(/C=C/C=C/C=C/C=C/c2sccc2Cl)oc(=O)c1` [Compound 1j], the EC50 in assay [2] came out at 29 ± 6 µM. Besides, the IC50 in assay [5] was greater than 100 µM.

With `COc1cc(/C=C/C=C/C=C/C=C/c2sccc2Cl)oc(=O)c1C` [Compound 1k], the EC50 in assay [2] was 18 ± 2 µM. This molecule also registered an IC50 in assay [5] greater than 100 µM.

`COc1cc(/C=C/C=C/C=C/C=C/c2ccccc2Cl)oc(=O)c1C` [Compound 1l]: the EC50 in assay [2] was determined as 18 ± 3 µM. The half-maximal inhibitory concentration (IC50) in assay [5] was greater than 100 µM.

Consider `COc1cc(/C=C/C=C/C=C/C=C/c2cccc(Cl)c2)oc(=O)c1C` [Compound 1m], for which, in assay [2], the EC50 worked out at 26 ± 3 µM. Further, the IC50 in assay [5] is greater than 100 µM.

As to `COc1cc(/C=C/C=C/C=C/C=C/c2c(Cl)ccn2S(C)(=O)=O)oc(=O)c1C` [Compound 1n], in assay [1], the “secretion of IL-6” value is recorded as “decreased production; also recorded: decreased the secretion of IL-6 by LPS-activated RAW 264.7 macrophages in a dose-dependent manner” and the “background level of IL-6” value is listed as “did not alter”. Also, in assay [2], the EC50 stood at 17 ± 2 µM, the “production of NO by LPS-activated cells” value is “decreased production; also recorded: decreased the production of NO by LPS-activated cells in a dose-dependent manner” and the “background level of NO” value is “did not alter”. In addition, in assay [3], the TNF-α secretion entry was “slight reduced by compounds 1h, 1i and 1n, but not significantly”; the “background level of TNF-α” value is given as “did not alter”. The “expression of iNOS protein” value in assay [4] is “decreased production; also recorded: reduced the expression of iNOS protein”. For the same molecule, the IC50 in assay [5] is greater than 100 µM. The COX-2 expression entry in assay [6] is “did not affect”.

For `CC(=O)N[C@@H](CS)C(=O)O` [N-acetyl cysteine, reference compound], in assay [7], the “LPS-stimulated ROS production” value is “reduced ROS production”.
